Source: US12037583B2, “Compositions and methods for immunooncology” (Novartis AG, priority 2015, dated 2024)

Test system: CIITA
Test: NGS editing and frameshift edit of CIITA by dgRNA in HEK293 cells expressing Cas9
Assay type: cell-based, human
Conditions: HEK293 cells stably expressing Cas9, dgRNA to CIITA; for Avg. % Edit: N = 3; for Avg. % FS: frameshift edit
Experimental: Editing of CIITA with dgRNAs targeted to the CIITA gene were assayed in HEK293 cells engineered to express Cas9, as described above in Example 1.

Substance	Avg. % Edit [%]	Avg. % FS [%]
CR002973 (guide CAUCGCUGUUAAGAAGCUCC; targeting domain within dual guide RNA, chemistry not given here, further chemistry not given here; listed as Homo sapiens)	30.60	23.55
CR002974 (guide AGAAGUGGUAGAGGCACAGG; targeting domain within dual guide RNA, chemistry not given here, further chemistry not given here; listed as Homo sapiens)	8.99	6.92
CR002975 (guide UAGAAGUGGUAGAGGCACAG; targeting domain within dual guide RNA, chemistry not given here, further chemistry not given here; listed as Homo sapiens)	19.31	15.82
CR002977 (guide CAUAGAAGUGGUAGAGGCAC; targeting domain within dual guide RNA, chemistry not given here, further chemistry not given here; listed as Homo sapiens)	19.11	12.99
CR002979 (guide CUACCACUUCUAUGACCAGA; targeting domain within dual guide RNA, chemistry not given here, further chemistry not given here; listed as Homo sapiens)	28.91	23.07
CR002981 (guide CUUCUAUGACCAGAUGGACC; targeting domain within dual guide RNA, chemistry not given here, further chemistry not given here; listed as Homo sapiens)	36.28	29.98
CR002982 (guide UAUGACCAGAUGGACCUGGC; targeting domain within dual guide RNA, chemistry not given here, further chemistry not given here; listed as Homo sapiens)	10.45	9.05
CR002983 (guide CUUCUCCAGCCAGGUCCAUC; targeting domain within dual guide RNA, chemistry not given here, further chemistry not given here; listed as Homo sapiens)	35.90	33.83
CR002985 (guide CAGUUGAUGGUGUCUGUGUC; targeting domain within dual guide RNA, chemistry not given here, further chemistry not given here; listed as Homo sapiens)	32.99	29.52
CR002986 (guide GCAGUUGAUGGUGUCUGUGU; targeting domain within dual guide RNA, chemistry not given here, further chemistry not given here; listed as Homo sapiens)	1.77	1.48
CR002989 (guide CACACAACAGCCUGCUGAAC; targeting domain within dual guide RNA, chemistry not given here, further chemistry not given here; listed as Homo sapiens)	27.38	8.45
CR002996 (guide AGGUGCUUCCUCACCGAUAU; targeting domain within dual guide RNA, chemistry not given here, further chemistry not given here; listed as Homo sapiens)	23.91	17.83
CR002998 (guide GGGAGUCCUGGAAGACAUAC; targeting domain within dual guide RNA, chemistry not given here, further chemistry not given here; listed as Homo sapiens)	4.95	4.84
CR002999 (guide UGUCUUCCAGGACUCCCAGC; targeting domain within dual guide RNA, chemistry not given here, further chemistry not given here; listed as Homo sapiens)	23.50	18.58
CR003000 (guide CUUCCAGGACUCCCAGCUGG; targeting domain within dual guide RNA, chemistry not given here, further chemistry not given here; listed as Homo sapiens)	12.83	10.53
CR003002 (guide GGCCCUCCAGCUGGGAGUCC; targeting domain within dual guide RNA, chemistry not given here, further chemistry not given here; listed as Homo sapiens)	11.85	9.78
CR003003 (guide CUUGCUCAGGCCCUCCAGCU; targeting domain within dual guide RNA, chemistry not given here, further chemistry not given here; listed as Homo sapiens)	35.07	27.91

Substance	Avg. % Edit [%]	Avg. % FS [%]
CR003004 (guide CCUUGCUCAGGCCCUCCAGC; targeting domain within dual guide RNA, chemistry not given here, further chemistry not given here; listed as Homo sapiens)	19.43	15.63
CR003005 (guide CCAGCUGGAGGGCCUGAGCA; targeting domain within dual guide RNA, chemistry not given here, further chemistry not given here; listed as Homo sapiens)	21.11	18.08
CR003006 (guide UACUGAAAAUGUCCUUGCUC; targeting domain within dual guide RNA, chemistry not given here, further chemistry not given here; listed as Homo sapiens)	19.46	14.66
CR003008 (guide CUCUCACCGAUCACUUCAUC; targeting domain within dual guide RNA, chemistry not given here, further chemistry not given here; listed as Homo sapiens)	15.30	10.91
CR003010 (guide AUGGAGAUGCCAGCAGAAGU; targeting domain within dual guide RNA, chemistry not given here, further chemistry not given here; listed as Homo sapiens)	25.45	14.37
CR003012 (guide CUUUUCUGCCCAACUUCUGC; targeting domain within dual guide RNA, chemistry not given here, further chemistry not given here; listed as Homo sapiens)	10.67	7.51
CR003014 (guide GGUCUGCCGGAAGCUCCUCU; targeting domain within dual guide RNA, chemistry not given here, further chemistry not given here; listed as Homo sapiens)	32.51	26.93
CR003015 (guide AGGUCUGCCGGAAGCUCCUC; targeting domain within dual guide RNA, chemistry not given here, further chemistry not given here; listed as Homo sapiens)	27.40	24.05
CR003016 (guide UUCCGGCAGACCUGAAGCAC; targeting domain within dual guide RNA, chemistry not given here, further chemistry not given here; listed as Homo sapiens)	17.86	13.55
CR003017 (guide UUCCAGUGCUUCAGGUCUGC; targeting domain within dual guide RNA, chemistry not given here, further chemistry not given here; listed as Homo sapiens)	21.90	15.22
CR003018 (guide GAGCCCCCCACUGUGGUGAC; targeting domain within dual guide RNA, chemistry not given here, further chemistry not given here; listed as Homo sapiens)	27.72	26.54
CR003019 (guide CUGCCAGUCACCACAGUGGG; targeting domain within dual guide RNA, chemistry not given here, further chemistry not given here; listed as Homo sapiens)	11.80	9.74
CR003020 (guide ACUGCCAGUCACCACAGUGG; targeting domain within dual guide RNA, chemistry not given here, further chemistry not given here; listed as Homo sapiens)	23.67	16.44
CR003022 (guide AGACUGCCAGUCACCACAGU; targeting domain within dual guide RNA, chemistry not given here, further chemistry not given here; listed as Homo sapiens)	23.73	17.96
CR003023 (guide GAGACUGCCAGUCACCACAG; targeting domain within dual guide RNA, chemistry not given here, further chemistry not given here; listed as Homo sapiens)	29.38	16.83
CR003024 (guide GGUGACUGGCAGUCUCCUAG; targeting domain within dual guide RNA, chemistry not given here, further chemistry not given here; listed as Homo sapiens)	20.40	16.33
